“And” between values parts separate entries of the source, which are not always exact repeats. Identical values can stand only once.
How the values were obtained:
Assay in all cases: biochemical
Type in all cases: biochemical
various kinases [1] = biological target: T1, various kinases (Homo sapiens, UniProt O00141); settings: kinase SGK (SGK1); ZLYTE
T1 sequence (O00141 1-431): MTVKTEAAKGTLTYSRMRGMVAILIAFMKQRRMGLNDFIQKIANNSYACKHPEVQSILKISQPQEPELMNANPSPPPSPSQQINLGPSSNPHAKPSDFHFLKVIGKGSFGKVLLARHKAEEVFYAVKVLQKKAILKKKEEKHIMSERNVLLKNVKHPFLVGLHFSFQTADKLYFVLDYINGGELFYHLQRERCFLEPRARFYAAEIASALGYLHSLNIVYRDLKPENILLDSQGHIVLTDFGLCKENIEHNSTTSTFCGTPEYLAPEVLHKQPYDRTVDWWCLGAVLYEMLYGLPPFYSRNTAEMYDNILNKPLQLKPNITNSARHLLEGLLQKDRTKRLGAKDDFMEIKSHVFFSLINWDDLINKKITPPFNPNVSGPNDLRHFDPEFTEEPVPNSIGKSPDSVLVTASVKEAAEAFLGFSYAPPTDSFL

various kinases [2] = biological target: various kinases (Homo sapiens, UniProt P00533, T790M); settings: EGFR (ErbB1) T790M
various kinases [3] = biological target: various kinases (Homo sapiens, UniProt P10721, V559D); settings: KIT V559D
Chain of various kinases (Homo sapiens, UniProt P10721, V559D) (P10721 26-976 V559D): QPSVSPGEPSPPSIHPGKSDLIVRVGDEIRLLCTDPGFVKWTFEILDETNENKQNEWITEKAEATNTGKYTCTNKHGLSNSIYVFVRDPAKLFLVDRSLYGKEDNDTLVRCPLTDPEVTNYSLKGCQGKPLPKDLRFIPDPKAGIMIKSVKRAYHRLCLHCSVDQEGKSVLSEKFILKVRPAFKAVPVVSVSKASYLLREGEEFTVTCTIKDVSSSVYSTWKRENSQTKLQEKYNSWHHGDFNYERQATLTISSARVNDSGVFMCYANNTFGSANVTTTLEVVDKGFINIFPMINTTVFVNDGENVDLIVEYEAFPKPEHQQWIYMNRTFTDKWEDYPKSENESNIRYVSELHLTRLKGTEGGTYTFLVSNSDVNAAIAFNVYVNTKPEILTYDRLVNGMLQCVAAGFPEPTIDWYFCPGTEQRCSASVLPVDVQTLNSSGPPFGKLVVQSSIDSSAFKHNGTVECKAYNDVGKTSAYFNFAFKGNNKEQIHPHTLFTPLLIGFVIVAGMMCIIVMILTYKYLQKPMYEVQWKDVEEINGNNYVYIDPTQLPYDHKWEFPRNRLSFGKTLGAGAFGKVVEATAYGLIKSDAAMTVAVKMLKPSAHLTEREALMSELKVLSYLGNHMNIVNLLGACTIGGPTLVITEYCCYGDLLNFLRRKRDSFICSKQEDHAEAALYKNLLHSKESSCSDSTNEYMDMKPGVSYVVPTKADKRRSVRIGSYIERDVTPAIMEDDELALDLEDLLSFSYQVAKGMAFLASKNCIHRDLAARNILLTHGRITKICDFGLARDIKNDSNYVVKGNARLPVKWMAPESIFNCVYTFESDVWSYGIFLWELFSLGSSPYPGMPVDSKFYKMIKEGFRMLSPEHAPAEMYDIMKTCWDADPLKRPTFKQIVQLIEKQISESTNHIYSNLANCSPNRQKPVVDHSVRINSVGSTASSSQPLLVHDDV

various kinases [4] = biological target: various kinases (Homo sapiens, UniProt P25098); settings: ADRBK1 (GRK2)
Chain of various kinases (Homo sapiens, UniProt P25098) (P25098 whole entry): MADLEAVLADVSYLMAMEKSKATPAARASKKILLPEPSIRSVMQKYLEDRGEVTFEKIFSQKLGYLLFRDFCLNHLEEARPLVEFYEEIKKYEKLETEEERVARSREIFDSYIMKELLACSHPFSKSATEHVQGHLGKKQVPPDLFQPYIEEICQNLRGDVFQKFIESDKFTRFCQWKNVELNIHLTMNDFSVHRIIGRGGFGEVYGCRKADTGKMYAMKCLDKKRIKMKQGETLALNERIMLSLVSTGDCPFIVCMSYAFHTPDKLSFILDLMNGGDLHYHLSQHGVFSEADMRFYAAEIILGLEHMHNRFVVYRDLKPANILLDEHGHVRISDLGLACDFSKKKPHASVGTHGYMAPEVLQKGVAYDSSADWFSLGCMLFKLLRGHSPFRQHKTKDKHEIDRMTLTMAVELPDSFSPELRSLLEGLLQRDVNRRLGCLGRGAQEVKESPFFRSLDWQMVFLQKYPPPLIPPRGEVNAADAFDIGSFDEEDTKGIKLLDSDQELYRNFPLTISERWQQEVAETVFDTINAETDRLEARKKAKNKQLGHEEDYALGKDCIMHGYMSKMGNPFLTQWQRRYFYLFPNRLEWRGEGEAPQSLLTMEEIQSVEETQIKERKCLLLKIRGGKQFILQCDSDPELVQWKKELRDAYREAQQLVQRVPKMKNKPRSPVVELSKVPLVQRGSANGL

various kinases [5] = biological target: various kinases (Homo sapiens, UniProt P35626); settings: ADRBK2 (GRK3)
Chain of various kinases (Homo sapiens, UniProt P35626) (P35626 whole entry): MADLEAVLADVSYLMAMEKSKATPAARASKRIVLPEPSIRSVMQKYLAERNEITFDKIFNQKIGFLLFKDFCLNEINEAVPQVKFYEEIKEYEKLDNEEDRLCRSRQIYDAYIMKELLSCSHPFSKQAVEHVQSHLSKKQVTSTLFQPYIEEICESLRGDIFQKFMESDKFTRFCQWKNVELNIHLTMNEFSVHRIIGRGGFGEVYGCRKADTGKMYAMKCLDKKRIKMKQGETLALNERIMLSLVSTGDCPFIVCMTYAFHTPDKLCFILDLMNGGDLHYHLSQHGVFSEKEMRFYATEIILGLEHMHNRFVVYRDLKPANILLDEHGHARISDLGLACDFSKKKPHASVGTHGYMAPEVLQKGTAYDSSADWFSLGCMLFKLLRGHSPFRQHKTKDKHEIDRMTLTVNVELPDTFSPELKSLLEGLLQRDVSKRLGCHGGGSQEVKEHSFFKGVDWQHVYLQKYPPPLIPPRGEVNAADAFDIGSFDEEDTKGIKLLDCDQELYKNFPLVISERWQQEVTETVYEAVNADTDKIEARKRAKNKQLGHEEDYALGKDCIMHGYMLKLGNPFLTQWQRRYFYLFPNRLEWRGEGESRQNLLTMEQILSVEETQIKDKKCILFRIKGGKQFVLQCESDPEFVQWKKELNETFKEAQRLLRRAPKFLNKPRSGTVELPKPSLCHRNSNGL

various kinases [6] = biological target: various kinases (Homo sapiens, UniProt P36888); settings: FLT3
various kinases [7] = biological target: various kinases (Homo sapiens, UniProt P42679); settings: MATK (HYL)
Chain of various kinases (Homo sapiens, UniProt P42679) (P42679 whole entry): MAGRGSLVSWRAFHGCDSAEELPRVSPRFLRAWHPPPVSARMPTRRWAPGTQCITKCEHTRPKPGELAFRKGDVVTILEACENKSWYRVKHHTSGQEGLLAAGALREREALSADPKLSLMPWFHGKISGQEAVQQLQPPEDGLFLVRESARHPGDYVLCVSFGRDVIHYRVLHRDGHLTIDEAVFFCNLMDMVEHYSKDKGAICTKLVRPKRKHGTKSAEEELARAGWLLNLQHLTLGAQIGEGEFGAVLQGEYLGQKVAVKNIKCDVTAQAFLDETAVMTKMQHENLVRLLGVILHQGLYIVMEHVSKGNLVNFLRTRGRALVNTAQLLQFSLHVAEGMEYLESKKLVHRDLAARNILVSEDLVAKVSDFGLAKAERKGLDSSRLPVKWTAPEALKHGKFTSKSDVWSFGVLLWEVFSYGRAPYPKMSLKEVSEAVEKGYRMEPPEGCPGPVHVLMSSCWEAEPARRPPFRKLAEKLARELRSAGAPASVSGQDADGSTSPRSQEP

various kinases [8] = biological target: various kinases (Homo sapiens, UniProt P49841); settings: GSK3B (GSK3 beta)
Chain of various kinases (Homo sapiens, UniProt P49841) (P49841 whole entry): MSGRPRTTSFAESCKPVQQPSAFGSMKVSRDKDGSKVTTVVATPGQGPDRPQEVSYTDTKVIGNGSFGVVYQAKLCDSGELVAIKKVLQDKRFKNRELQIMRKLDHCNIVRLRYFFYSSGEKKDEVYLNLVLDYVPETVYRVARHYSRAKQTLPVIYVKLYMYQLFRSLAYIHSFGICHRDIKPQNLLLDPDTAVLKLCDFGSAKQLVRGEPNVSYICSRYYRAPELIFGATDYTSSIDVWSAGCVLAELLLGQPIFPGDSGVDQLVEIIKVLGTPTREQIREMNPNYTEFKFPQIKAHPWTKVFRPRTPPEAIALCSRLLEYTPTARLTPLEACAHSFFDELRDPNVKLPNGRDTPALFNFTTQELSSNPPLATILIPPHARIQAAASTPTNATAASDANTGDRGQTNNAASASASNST

various kinases [9] = biological target: various kinases (Homo sapiens, UniProt P52564); settings: MAP2K6 (MKK6)
Chain of various kinases (Homo sapiens, UniProt P52564) (P52564 whole entry): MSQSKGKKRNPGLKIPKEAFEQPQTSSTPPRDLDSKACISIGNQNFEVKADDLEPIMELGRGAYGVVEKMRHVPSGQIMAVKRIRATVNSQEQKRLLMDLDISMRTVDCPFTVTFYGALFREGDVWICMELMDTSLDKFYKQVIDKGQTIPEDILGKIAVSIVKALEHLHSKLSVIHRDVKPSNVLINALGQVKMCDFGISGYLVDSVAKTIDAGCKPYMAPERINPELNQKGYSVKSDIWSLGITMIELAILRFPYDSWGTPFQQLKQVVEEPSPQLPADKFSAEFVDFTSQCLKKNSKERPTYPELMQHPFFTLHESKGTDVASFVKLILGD

various kinases [10] = biological target: various kinases (Homo sapiens, UniProt Q00535)
Chain of various kinases (Homo sapiens, UniProt Q00535) (Q00535 whole entry): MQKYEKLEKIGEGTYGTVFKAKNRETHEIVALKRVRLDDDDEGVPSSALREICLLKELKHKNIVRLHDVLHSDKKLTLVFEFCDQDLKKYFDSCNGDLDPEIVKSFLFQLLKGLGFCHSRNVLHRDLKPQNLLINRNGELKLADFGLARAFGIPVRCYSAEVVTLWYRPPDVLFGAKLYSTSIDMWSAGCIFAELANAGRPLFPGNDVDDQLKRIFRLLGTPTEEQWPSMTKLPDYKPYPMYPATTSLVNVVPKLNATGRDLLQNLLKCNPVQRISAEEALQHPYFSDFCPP

various kinases [11] = biological target: T2, various kinases (Homo sapiens, UniProt Q13237); settings: kinase PRKG2 (PKG2); ZLYTE
T2 sequence (Q13237 1-762): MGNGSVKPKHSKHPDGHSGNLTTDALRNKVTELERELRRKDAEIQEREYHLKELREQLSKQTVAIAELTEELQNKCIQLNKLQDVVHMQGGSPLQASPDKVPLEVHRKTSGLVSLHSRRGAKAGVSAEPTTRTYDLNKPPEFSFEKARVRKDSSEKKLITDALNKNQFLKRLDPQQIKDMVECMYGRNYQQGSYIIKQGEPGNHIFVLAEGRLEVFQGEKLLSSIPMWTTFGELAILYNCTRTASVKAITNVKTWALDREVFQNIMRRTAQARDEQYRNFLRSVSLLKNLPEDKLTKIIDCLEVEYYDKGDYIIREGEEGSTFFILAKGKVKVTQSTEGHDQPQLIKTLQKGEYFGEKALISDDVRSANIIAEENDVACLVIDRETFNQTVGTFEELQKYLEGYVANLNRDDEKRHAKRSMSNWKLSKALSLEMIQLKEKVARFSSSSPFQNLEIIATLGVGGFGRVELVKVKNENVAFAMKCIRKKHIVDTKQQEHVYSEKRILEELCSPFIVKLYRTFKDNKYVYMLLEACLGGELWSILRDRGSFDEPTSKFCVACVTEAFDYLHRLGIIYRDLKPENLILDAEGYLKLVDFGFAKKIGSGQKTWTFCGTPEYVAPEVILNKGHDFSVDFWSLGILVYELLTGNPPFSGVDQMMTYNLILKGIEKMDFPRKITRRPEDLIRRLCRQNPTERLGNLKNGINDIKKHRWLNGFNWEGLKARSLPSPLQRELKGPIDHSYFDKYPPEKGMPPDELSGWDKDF

various kinases [12] = biological target: T3, various kinases (Homo sapiens, UniProt Q13976); settings: kinase PRKG1; ZLYTE
T3 sequence (Q13976 1-671): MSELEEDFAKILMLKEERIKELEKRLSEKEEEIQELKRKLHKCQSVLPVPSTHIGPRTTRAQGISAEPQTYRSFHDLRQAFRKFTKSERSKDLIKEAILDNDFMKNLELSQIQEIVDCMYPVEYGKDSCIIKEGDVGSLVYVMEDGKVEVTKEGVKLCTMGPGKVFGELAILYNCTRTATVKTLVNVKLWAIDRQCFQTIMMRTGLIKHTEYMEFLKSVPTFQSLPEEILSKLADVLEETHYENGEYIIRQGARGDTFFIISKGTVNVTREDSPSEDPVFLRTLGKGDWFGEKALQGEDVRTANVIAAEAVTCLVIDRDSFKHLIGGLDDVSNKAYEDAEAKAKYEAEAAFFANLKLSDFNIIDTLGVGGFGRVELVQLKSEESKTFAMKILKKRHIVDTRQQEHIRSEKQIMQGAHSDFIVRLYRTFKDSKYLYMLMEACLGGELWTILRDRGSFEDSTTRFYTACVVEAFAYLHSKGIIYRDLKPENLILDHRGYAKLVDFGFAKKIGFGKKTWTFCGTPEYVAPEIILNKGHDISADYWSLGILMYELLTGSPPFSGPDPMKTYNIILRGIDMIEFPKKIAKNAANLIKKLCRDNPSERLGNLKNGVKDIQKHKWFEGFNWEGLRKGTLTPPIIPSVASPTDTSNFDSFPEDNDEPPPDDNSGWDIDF

various kinases [13] = biological target: various kinases (Homo sapiens, UniProt Q14680); settings: MELK
various kinases [14] = biological target: various kinases (Homo sapiens, UniProt Q16644); settings: MAPKAPK3
Chain of various kinases (Homo sapiens, UniProt Q16644) (Q16644 whole entry): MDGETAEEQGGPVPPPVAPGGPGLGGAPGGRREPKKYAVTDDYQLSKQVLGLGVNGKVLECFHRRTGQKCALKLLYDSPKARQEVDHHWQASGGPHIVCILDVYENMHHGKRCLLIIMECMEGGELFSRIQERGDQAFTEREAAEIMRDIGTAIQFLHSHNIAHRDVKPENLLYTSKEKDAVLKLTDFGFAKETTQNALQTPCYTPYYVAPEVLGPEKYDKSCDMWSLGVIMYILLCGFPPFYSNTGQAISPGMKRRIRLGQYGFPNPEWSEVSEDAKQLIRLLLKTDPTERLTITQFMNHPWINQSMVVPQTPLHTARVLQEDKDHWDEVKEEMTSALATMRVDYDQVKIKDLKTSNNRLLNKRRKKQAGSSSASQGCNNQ

various kinases [15] = biological target: various kinases (Homo sapiens, UniProt Q9UK32); settings: kinase RPS6KA6 (RSK4); ZLYTE
Chain of various kinases (Homo sapiens, UniProt Q9UK32) (Q9UK32 whole entry): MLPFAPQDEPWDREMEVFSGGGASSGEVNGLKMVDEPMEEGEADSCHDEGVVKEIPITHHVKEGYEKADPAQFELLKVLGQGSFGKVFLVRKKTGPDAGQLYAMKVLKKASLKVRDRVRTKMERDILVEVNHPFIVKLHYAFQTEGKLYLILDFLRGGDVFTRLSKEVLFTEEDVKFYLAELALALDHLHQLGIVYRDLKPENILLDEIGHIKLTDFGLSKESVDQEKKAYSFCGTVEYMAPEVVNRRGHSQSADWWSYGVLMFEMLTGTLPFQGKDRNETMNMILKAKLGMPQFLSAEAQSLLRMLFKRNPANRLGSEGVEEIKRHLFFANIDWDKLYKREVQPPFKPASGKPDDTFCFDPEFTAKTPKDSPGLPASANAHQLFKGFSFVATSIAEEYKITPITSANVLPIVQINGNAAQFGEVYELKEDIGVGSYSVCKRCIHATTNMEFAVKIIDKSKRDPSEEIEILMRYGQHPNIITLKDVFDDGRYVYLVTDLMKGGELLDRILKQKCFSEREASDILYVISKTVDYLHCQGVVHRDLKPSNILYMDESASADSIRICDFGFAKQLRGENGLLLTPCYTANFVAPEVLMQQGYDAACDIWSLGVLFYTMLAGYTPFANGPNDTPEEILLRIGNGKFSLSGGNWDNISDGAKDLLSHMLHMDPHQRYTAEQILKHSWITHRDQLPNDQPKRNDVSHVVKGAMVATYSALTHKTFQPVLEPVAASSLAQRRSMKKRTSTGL

With `COc1ccc2c(c1)[C@]1(C[C@H]1c1ccc3c(/C=C/c4ccc(CN5C[C@@H](C)O[C@@H](C)C5)cc4)n[nH]c3c1)C(=O)N2` [CFI-400945] the “% Inhibition Average” value (various kinases [1]) was 8%, the “% Inhibition Duplicate #1” value (various kinases [1]) was 9% and the “% Inhibition Duplicate #2” value (various kinases [1]) was 7%. For the same compound, the “% Inhibition” value (various kinases [2]) was 3%, the “% Inhibition” value (various kinases [3]) was 9% and 10% and the “% Inhibition” value (various kinases [4]) was 5% and 4%. For the same compound, the “% Inhibition” value (various kinases [5]) was 4% and 7%, the “% Inhibition” value (various kinases [6]) was 74% and the IC50 (various kinases [6]) was 59.7 nM. For the same compound, the “% Inhibition” value (various kinases [7]) was 6% and 4%, the “% Inhibition” value (various kinases [8]) was 7% and 6% and the “% Inhibition” value (various kinases [9]) was 4% and -2%. For the same compound, the “% Inhibition” value (various kinases [10]; CDK5/p25) was 6% and 8%, the “% Inhibition” value (various kinases [10]; CDK5/p35) was 2% and 3% and the “% Inhibition Average” value (various kinases [11]) was 1%. The “% Inhibition Duplicate #1” value (various kinases [11]) was 2%, the “% Inhibition Duplicate #2” value (various kinases [11]) was 0% and the “% Inhibition Average” value (various kinases [12]) was 5%. For the same compound, the “% Inhibition Duplicate #1” value (various kinases [12]) was 6%, the “% Inhibition Duplicate #2” value (various kinases [12]) was 4% and the “% Inhibition” value (various kinases [13]) was 9% and 18%. The “% Inhibition” value (various kinases [14]) was 2% and -4%, the “% Inhibition Average” value (various kinases [15]) was 4% and the “% Inhibition Duplicate #1” value (various kinases [15]) was 6%. The “% Inhibition Duplicate #2” value (various kinases [15]) was 3%.
